Calls of active or inactive are those of the source. The rule behind the calls is not given here.
How the values were obtained:
[1] = biological target: Glutamate receptor ionotropic, AMPA (Rattus norvegicus, UniProt P19490+P19491+P19492+P19493)
Description: Antagonist activity against AMPA receptor expressed in motoneurones by inhibition of fDR-VRP in the neonatal rat spinal cord

[2] = biological target: Glutamate receptor ionotropic, kainate 2 (Rattus norvegicus, UniProt P42260); experiment: Displacement of [3H]kainate from rat GLUK6 expressed in HEK293 cells; assay type: cell-based
[3] = Induction of calcium influx in HEK293 cells expressing human GLUK5/GLUK2 by FLIPR assay
[4] = Induction of calcium influx in HEK293 cells expressing human GLUK5/GLUK6 by FLIPR assay
[5] = Inhibition of glutamate-induced calcium influx in HEK293 cells expressing human GLUK5/GLUK2 by FLIPR assay; assay type: functional, cell-based
[6] = Inhibition of glutamate-induced calcium influx in HEK293 cells expressing human GLUK5/GLUK6 by FLIPR assay; assay type: functional, cell-based
Glutamate receptor 1 [7] = biological target: T1, Glutamate receptor 1 (Homo sapiens, UniProt P42261); experiment: Inhibition of glutamate-induced calcium influx in HEK293 cells expressing human GLUA1; assay type: functional, cell-based
T1 sequence (P42261 whole entry): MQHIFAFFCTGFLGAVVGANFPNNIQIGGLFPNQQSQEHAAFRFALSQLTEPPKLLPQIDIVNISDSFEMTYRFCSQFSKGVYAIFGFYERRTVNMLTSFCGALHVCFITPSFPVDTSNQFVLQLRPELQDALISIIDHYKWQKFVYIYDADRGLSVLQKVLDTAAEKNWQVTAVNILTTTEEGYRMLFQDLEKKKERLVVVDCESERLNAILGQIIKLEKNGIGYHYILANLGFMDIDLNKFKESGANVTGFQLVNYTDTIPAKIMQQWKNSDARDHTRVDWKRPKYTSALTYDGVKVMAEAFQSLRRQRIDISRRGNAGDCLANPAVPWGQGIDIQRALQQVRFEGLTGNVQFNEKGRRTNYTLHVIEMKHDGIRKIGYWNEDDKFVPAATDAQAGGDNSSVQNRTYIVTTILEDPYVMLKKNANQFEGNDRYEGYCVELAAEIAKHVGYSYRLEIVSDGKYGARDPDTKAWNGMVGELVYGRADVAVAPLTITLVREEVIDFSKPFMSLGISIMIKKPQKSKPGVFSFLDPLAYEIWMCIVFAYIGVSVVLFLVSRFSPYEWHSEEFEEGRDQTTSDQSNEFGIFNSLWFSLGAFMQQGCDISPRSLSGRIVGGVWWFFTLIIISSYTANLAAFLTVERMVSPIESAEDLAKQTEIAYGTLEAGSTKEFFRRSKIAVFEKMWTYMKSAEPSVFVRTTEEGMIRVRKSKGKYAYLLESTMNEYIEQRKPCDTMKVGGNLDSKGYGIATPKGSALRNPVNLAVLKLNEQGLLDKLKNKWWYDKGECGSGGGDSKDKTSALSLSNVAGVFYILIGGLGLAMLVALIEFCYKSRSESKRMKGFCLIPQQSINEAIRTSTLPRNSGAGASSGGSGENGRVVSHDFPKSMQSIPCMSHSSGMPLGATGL

[8] = biological target: Metabotropic glutamate receptor 5 (Rattus norvegicus) (UniProt P31424); experiment: Activity against DHPG-induced depolarization of neonatal rat motoneurons expressing mGlu5 receptor at 50 uM
Metabotropic glutamate receptor 5 (Rattus norvegicus), sequence (P31424 21-1203 limits assumed): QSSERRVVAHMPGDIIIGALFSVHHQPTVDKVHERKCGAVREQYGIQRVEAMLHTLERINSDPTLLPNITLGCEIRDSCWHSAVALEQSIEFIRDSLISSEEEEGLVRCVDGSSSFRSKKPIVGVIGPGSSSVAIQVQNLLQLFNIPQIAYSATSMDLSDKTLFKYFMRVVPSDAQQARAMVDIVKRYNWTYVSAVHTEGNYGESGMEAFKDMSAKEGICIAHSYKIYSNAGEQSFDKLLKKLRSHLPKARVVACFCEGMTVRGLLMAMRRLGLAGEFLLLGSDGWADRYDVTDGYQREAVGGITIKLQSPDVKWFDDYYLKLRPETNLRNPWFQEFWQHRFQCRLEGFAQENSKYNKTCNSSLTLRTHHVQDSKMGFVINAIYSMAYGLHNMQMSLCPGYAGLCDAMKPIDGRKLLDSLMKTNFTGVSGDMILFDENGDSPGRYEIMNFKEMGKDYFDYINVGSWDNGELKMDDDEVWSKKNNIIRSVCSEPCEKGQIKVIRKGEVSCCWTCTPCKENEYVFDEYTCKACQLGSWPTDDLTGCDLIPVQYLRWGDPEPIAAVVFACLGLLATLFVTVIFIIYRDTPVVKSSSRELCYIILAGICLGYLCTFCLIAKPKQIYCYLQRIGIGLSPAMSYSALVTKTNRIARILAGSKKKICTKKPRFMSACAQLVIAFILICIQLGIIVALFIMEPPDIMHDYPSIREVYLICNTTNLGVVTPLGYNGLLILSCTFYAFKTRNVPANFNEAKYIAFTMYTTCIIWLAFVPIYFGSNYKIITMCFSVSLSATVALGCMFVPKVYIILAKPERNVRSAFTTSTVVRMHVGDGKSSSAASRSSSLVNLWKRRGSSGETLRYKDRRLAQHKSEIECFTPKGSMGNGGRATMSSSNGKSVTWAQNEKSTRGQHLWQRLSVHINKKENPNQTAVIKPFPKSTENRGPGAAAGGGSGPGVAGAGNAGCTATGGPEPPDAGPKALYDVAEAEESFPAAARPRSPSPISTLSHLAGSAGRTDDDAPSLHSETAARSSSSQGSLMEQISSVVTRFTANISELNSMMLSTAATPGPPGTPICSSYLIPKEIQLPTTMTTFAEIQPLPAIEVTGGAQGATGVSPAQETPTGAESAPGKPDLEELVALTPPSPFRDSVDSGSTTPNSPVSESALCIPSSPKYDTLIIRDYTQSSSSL

[9] = biological target: Glutamate receptor ionotropic, kainate 1 (Homo sapiens, UniProt P39086); experiment: Inhibition of glutamate-induced calcium influx in HEK293 cells expressing human GLUK5 by FLIPR assay; assay type: functional, cell-based
Glutamate receptor 1 [10] = biological target: T1, Glutamate receptor 1; experiment: Inhibition of glutamate-induced calcium influx in HEK293 cells expressing human GLUA1 up to 100 uM; assay type: functional, cell-based
Glutamate receptor 4 = Glutamate receptor 4 (Homo sapiens, UniProt P48058); experiment: Inhibition of glutamate-induced calcium influx in HEK293 cells expressing human GLUA4 up to 100 uM; assay type: functional, cell-based
[11] = biological target: Glutamate NMDA receptor (Rattus norvegicus) (UniProt P35439+Q00959+Q00960+Q00961+Q62645+Q8VHN2+Q9R1M7); experiment: Activity against NMDA-induced depolarization of neonatal rat motoneurons expressing NMDA receptor at 50 uM; assay type: protein-complex assay
[12] = biological target: Glutamate receptor 2 (Homo sapiens) (UniProt P42262); experiment: Inhibition of glutamate-induced calcium influx in HEK293 cells expressing human GLUA2 up to 100 uM; assay type: functional, cell-based
Glutamate receptor 2 (Homo sapiens), sequence (P42262 whole entry): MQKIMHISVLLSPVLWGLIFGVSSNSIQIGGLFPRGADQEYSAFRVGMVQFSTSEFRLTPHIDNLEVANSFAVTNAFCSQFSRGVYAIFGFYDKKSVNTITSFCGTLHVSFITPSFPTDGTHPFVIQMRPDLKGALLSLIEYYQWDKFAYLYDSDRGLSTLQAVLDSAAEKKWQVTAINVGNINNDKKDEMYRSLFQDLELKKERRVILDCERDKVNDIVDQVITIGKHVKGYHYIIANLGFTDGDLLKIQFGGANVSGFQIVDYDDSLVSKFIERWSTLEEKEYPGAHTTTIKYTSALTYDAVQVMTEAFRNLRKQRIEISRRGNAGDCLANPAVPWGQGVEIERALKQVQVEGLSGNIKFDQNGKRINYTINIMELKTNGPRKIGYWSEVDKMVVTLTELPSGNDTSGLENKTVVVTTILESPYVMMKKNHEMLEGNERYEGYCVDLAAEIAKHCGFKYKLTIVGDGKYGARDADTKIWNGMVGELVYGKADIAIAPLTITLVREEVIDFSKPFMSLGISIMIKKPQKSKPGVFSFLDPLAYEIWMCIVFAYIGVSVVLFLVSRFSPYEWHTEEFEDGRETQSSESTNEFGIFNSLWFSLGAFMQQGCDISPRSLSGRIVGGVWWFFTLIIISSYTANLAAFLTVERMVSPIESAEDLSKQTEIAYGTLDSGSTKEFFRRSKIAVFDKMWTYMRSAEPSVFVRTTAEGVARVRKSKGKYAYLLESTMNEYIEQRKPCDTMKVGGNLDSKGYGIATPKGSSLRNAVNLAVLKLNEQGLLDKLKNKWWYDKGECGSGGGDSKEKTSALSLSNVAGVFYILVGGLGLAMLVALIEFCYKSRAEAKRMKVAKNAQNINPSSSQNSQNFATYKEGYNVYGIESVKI

[13] = biological target: Metabotropic glutamate receptor 1 (Rattus norvegicus) (UniProt P23385); experiment: Activity against DHPG-induced depolarization of neonatal rat motoneurons expressing mGlu1 receptor at 50 uM
Metabotropic glutamate receptor 1 (Rattus norvegicus), sequence (P23385 19-1199 limits assumed): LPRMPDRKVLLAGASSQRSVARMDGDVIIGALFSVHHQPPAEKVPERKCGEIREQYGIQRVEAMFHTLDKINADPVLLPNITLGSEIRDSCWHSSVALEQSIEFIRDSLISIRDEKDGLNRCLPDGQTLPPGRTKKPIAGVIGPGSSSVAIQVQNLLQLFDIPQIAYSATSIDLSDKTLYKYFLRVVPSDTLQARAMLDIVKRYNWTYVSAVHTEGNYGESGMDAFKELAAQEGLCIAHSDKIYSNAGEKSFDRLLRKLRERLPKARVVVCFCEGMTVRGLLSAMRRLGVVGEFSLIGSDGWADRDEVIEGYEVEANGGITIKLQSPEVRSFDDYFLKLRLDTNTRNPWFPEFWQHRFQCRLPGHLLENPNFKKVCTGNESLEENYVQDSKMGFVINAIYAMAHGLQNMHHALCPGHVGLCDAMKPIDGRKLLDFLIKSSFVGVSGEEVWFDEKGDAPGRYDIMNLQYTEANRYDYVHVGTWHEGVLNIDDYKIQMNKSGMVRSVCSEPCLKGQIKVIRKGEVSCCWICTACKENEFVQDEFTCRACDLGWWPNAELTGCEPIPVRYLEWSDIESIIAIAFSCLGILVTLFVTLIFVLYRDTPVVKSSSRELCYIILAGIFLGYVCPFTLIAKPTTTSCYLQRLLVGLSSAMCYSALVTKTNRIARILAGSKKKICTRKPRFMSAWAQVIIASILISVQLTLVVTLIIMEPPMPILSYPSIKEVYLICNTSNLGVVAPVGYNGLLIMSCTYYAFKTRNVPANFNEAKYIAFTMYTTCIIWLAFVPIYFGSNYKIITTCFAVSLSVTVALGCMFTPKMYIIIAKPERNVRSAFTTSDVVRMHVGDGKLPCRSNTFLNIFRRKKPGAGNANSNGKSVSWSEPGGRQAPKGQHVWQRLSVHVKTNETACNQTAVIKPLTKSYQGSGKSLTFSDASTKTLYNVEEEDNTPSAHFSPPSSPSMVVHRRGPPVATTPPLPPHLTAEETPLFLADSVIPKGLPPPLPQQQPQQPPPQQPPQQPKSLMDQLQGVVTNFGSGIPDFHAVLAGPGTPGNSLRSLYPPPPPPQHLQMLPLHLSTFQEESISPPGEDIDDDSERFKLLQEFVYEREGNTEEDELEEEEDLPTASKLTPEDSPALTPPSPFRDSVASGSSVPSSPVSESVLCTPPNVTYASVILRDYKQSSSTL

Glutamate receptor ionotropic, kainate 2, sequence (P42260 whole entry): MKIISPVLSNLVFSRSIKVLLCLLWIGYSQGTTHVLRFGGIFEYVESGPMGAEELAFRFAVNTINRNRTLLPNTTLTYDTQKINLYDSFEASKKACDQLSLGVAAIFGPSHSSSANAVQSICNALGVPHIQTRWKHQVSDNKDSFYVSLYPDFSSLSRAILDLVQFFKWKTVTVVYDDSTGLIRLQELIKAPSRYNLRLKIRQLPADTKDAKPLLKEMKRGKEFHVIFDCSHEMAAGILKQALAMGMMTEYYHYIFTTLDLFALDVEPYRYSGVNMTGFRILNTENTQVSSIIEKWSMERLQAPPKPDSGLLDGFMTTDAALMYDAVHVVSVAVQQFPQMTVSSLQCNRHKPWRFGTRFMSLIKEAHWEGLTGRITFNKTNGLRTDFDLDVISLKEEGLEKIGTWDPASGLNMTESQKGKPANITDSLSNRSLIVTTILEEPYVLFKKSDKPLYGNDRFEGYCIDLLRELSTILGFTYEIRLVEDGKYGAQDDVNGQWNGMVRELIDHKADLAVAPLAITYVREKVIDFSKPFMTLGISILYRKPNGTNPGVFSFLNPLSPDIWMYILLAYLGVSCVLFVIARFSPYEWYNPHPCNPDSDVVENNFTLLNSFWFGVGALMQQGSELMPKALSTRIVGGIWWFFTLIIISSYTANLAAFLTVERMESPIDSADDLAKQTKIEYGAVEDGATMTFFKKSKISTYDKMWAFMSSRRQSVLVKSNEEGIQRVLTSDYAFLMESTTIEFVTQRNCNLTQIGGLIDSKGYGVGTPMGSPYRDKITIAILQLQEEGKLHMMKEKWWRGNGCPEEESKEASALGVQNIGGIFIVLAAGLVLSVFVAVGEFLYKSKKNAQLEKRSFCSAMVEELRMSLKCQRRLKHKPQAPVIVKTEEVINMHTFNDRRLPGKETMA

In the case of `N[C@@H](Cn1cc(I)c(=O)n(CCc2nn[nH]n2)c1=O)C(=O)O`, the IC50 [1] is reported as 3.73 µM.

For `N[C@@H](Cn1ccc(=O)n(Cc2ccc(S(=O)(=O)O)cc2)c1=O)C(=O)O`, the IC50 [1] was 49 µM and the Ki [2] was greater than 100 µM.

Work on `N[C@@H](Cn1ccc(=O)n(CCc2nnn[nH]2)c1=O)C(=O)O` yielded an IC50 [1] of 6.87 µM and a Ki [2] greater than 100 µM.

In the case of `N[C@H](Cn1ccc(=O)n(Cc2ccsc2C(=O)O)c1=O)C(=O)O`, the IC50 [1] is reported as greater than 100 µM and the Ki [2] is reported as greater than 1000 µM.

In the case of `N[C@@H](CCC(=O)O)C(=O)O` [GLUTAMIC ACID], the EC50 [3] is reported as 35 µM and the EC50 [4] is reported as 27 µM.

`N[C@@H](Cn1ccc(=O)n(Cc2ccoc2C(=O)O)c1=O)C(=O)O` showed an IC50 [1] of 11.7 µM and a Ki [2] greater than 100 µM.

Work on `N[C@@H](Cn1ccc(=O)n(Cc2ccc(-c3nn[nH]n3)cc2)c1=O)C(=O)O` yielded an IC50 [1] of 50.9 µM.

`NS(=O)(=O)c1cccc2c1c([N+](=O)[O-])cc1nc(O)c(O)nc12` [NBQX] showed an IC50 [5] of 50 µM, an IC50 [6] of 28 µM and an IC50 (Glutamate receptor 1 [7]) of 6 µM.

Compound `N[C@@H](Cn1ccc(=O)n(Cc2nn[nH]n2)c1=O)C(=O)O` has an IC50 [1] of 45.4 µM and a Ki [2] greater than 100 µM.

With `N[C@@H](Cn1ccc(=O)n(CCC(=O)O)c1=O)C(=O)O` the Ki [2] was greater than 1000 µM.

In the case of `N[C@@H](Cn1ccc(=O)n(Cc2ccccc2P(=O)(O)O)c1=O)C(=O)O`, the IC50 [1] is reported as greater than 100 µM.

With `N[C@@H](Cn1ccc(=O)n(Cc2ccsc2C(=O)O)c1=O)C(=O)O` the IC50 [1] was 31.2 µM, the Kd [1] was 71.4 µM and the Activity [8] was “inactive”. The IC50 [9] was 0.68 µM, the IC50 [5] was 1.21 µM and the Activity (Glutamate receptor 1 [10]) was “inactive”. For the same compound, the Activity (Glutamate receptor 4) was “inactive”, the Activity [11] was “inactive” and the Activity [12] was “inactive”. The IC50 [6] was 0.62 µM, the Activity [13] was “inactive” and the Ki [2] was greater than 100 µM.

Compound `NC(Cn1ccc(=O)n(Cc2ccc(P(=O)(O)O)cc2)c1=O)C(=O)O` (racemic) has an IC50 [1] of 107 µM and a Ki [2] greater than 1000 µM.

— ChEMBL document CHEMBL1146072, “Structure-activity relationship studies on N3-substituted willardiine derivatives acting as AMPA or kainate receptor antagonists” (J Med Chem, 2006)
